By IC50 is commonly meant the midpoint of a concentration-inhibition curve.

Where only a bound is given, the exact number is not on record here.

The experiment concerns HuH-7 replicon cells 5–15 and 9–13 (HCV replication). The experiment can be described thus: Inhibition of viral replication in HuH-7 replicon cells (HCV RNA / GAPDH RNA by multiplex RT-PCR). The class given is cell-based. The settings on record: Hepatitis C virus, 72 h; inhibiting 50% of replication; HuH-7 replicon cells, 3 days; read-out: IC50. In short, it runs like this: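 HCV and GAPDH RNA were measured by multiplex TaqMan RT-PCR (HCV 5′ untranslated region) after 3-day compound treatment at 37 °C, final 100 μM–1 μM in 1% DMSO. Cells were plated 24 h beforehand at 7×10^3/well. Read-out: HCV-to-GAPDH ratio expressed as percent control versus untreated cells.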
As for `O=C(Cc1cc(F)cc(F)c1F)N/N=C/c1ccccc1OS(=O)(=O)c1ccc(C(F)(F)F)cc1` [Compound 20, 2-((E)-{2-[2-(2,3,5-trifluorophenyl)acetyl]hydrazono}methyl)-phenyl 4-(trifluoromethyl)benzenesulfonate], the IC50 is less than 5 µM.
For the compound `O=C(Cc1ccccc1)N/N=C/c1ccccc1OS(=O)(=O)c1ccc(F)cc1Cl` [Compound 137, 2-{(E)-[2-(2-phenylacetyl)hydrazono]methyl}phenyl 2-chloro-4-fluorobenzenesulfonate], the IC50 was in the range of 5 to 50 µM.
To `C/C(=N\NC(=O)Cc1cccc(Cl)c1)c1ccccc1OS(=O)(=O)c1ccc(C(F)(F)F)cc1` [Compound 81, 2-{(1E)-N-[(3-chlorophenyl)acetyl]ethanehydrazonoyl}-phenyl 4-(trifluoromethyl)benzenesulfonate] belongs greater than 50 µM.
In the case of `O=C(Cc1cccc(F)c1)N/N=C/c1ccccc1OS(=O)(=O)c1ccc(C(F)(F)F)cc1` [Compound 48, 2-((E)-{2-[2-(3-fluorophenyl)acetyl]hydrazono}methyl)-phenyl 4-(trifluoromethyl)benzenesulfonate] it was less than 5 µM; in that of `COC(=O)CCc1ccc(S(=O)(=O)Oc2ccccc2/C=N/NC(=O)Cc2cccc(OC)c2)cc1` [Compound 224, methyl 3-(4-{[2-((E)-{[(3-methoxyphenyl)acetyl]hydrazono}methyl)-phenoxy]sulfonyl}phenyl)propanoate], greater than 50 µM; in that of `COc1cccc(CC(=O)N/N=C/c2cc(Br)ccc2OS(=O)(=O)c2ccc(C(F)(F)F)cc2)c1` [Compound 166], less than 5 µM.
As for `CCCc1ccc(S(=O)(=O)Oc2ccccc2/C=N/NC(=O)Cc2cccc(OC)c2)cc1` [Compound 184, 2-((E)-{2-[2-(3-methoxyphenyl)acetyl]hydrazono}methyl)-phenyl 4-propylbenzenesulfonate], the IC50 was less than 5 µM.
To `O=C(N/N=C/c1ccccc1OS(=O)(=O)c1ccc(C(F)(F)F)cc1)OCc1ccccc1` [Compound 75, benzyl (2E)-2-[2-({[4-(trifluoromethyl)phenyl]sulfonyl}oxy)-benzylidene]hydrazinecarboxylate] belongs less than 5 µM; to `COc1cccc(CC(=O)N/N=C/c2ccccc2OS(=O)(=O)c2cnn(-c3ccccc3)c2C)c1` [Compound 188, 2-((E)-{2-[2-(3-methoxyphenyl)acetyl]hydrazono}methyl)-phenyl 5-methyl-1-phenyl-1H-pyrazole-4-sulfonate], less than 5 µM; to `CCC(C)(C)c1ccc(S(=O)(=O)Oc2ccccc2/C=N/NC(=O)Cc2cccc(OC)c2)cc1` [Compound 198, 2-((E)-{2-[2-(3-methoxyphenyl)acetyl]hydrazono}methyl)-phenyl 4-(1,1-dimethylpropyl)benzenesulfonate], less than 5 µM.
With `O=C(Cc1cccc(-n2cccc2)c1)N/N=C/c1ccccc1OS(=O)(=O)c1ccc(C(F)(F)F)cc1` [Compound 97, 2-[(E)-(2-{2-[3-(1H-pyrrol-1-yl)phenyl]acetyl}hydrazono)methyl]phenyl4-(trifluoromethyl)benzenesulfonate], the IC50 was greater than 50 µM.
Take `O=C(N/N=C/c1ccccc1OS(=O)(=O)c1ccc(C(F)(F)F)cc1)c1ccccc1F` [Compound 90, 2-{(E)-[2-(2-fluorobenzoyl)hydrazono]methyl}phenyl 4-(trifluoromethyl)benzenesulfonate]: the IC50 fell in the range of 5 to 50 µM.
To `CN(C)c1ccc(CC(=O)N/N=C/c2ccccc2OS(=O)(=O)c2ccc(C(F)(F)F)cc2)cc1` [Compound 11, 2-[(E)-(2-{2-[4-(dimethylamino)phenyl]acetyl}hydrazono)-methyl]phenyl 4-(trifluoromethyl)benzenesulfonate] belongs less than 5 µM; to `O=C(Cc1cc(F)c(F)cc1F)N/N=C/c1ccccc1OS(=O)(=O)c1ccc(C(F)(F)F)cc1` [Compound 17, 2-((E)-{2-[2-(2,4,5-trifluorophenyl)acetyl]hydrazono}methyl)-phenyl 4-(trifluoromethyl)benzenesulfonate], less than 5 µM; to `O=C(Cc1cccc(Br)c1)N/N=C/c1ccccc1NS(=O)(=O)c1ccc(C(F)(F)F)cc1` [Compound 241, N-[2-((E)-{[(3-bromophenyl)acetyl]hydrazono}methyl)-phenyl]-4-(trifluoromethyl)benzenesulfonamide], greater than 50 µM.
In the case of `CN(C)c1ccc(C(=O)N/N=C/c2ccccc2OS(=O)(=O)c2ccc(C(F)(F)F)cc2)cc1` [Compound 79, 2-((E)-{2-[4-(dimethylamino)benzoyl]hydrazono}methyl)-phenyl 4-(trifluoromethyl)benzenesulfonate] it was 5 to 50 µM; in that of `COc1cccc(CC(=O)N/N=C/c2c(OC)cccc2OS(=O)(=O)c2ccc(C(F)(F)F)cc2)c1` [Compound 170, 3-methoxy-2-((E)-{[(3-methoxyphenyl)acetyl]hydrazono}methyl)-phenyl 4-(trifluoromethyl)benzenesulfonate], less than 5 µM.
To `Cc1ccc(C)c(S(=O)(=O)Oc2ccccc2/C=N/NC(=O)Cc2ccccc2)c1` [Compound 130, 2-{(E)-[2-(2-phenylacetyl)hydrazono]methyl}phenyl2,5-dimethylbenzenesulfonate] belongs greater than 50 µM.
Consider `O=C(Cc1ccccc1)N/N=C/c1ccccc1OS(=O)(=O)c1ccccc1F` [Compound 112, 2-{(E)-[2-(2-phenylacetyl)hydrazono]methyl}phenyl 2-fluorobenzenesulfonate], for which the IC50 is greater than 50 µM.
In the case of `COc1cccc(CC(=O)N/N=C/c2ccccc2OS(=O)(=O)c2ccc(-c3cnco3)cc2)c1` [Compound 197, 2-((E)-{2-[2-(3-methoxyphenyl)acetyl]hydrazono}methyl)-phenyl 4-(1,3-oxazol-5-yl)benzenesulfonate], the half-maximal inhibitory concentration (IC50) was less than 5 µM.
Take `COc1cccc(CC(=O)N/N=C/c2ccncc2OS(=O)(=O)c2ccc(C(F)(F)F)cc2)c1` [Compound 230, 4-((E)-{2-[2-(3-methoxyphenyl)acetyl]hydrazono}methyl)-pyridin-3-yl 4-(trifluoromethyl)benzenesulfonate]: the IC50 was less than 5 µM.
To `COc1ccc2[nH]cc(CC(=O)N/N=C/c3ccccc3OS(=O)(=O)c3ccc(C(F)(F)F)cc3)c2c1` [Compound 49, 2-((E)-{2-[2-(5-methoxy-1H-indol-3-yl)acetyl]hydrazono}methyl)phenyl 4-(trifluoromethyl)benzenesulfonate] belongs 5 to 50 µM; to `O=C(Cc1ccc(C(F)(F)F)c(F)c1)N/N=C/c1ccccc1OS(=O)(=O)c1ccc(C(F)(F)F)cc1` [Compound 14, 2-[(E)-(2-{2-[3-fluoro-4-(trifluoromethyl)phenyl]acetyl}hydrazono)-methyl]phenyl 4-(trifluoromethyl)benzenesulfonate], less than 5 µM; to `O=C(Cc1nc(-c2cnccn2)no1)N/N=C/c1ccccc1OS(=O)(=O)c1ccc(C(F)(F)F)cc1` [Compound 82, 2-((E)-{2-[2-(3-pyrazin-2-yl-1,2,4-oxadiazol-5-yl)acetyl]hydrazono}methyl)phenyl 4-(trifluoromethyl)benzenesulfonate], 5 to 50 µM.
